Data from patent publication US12077503B2, “Substituted cyclic amides and their use as herbicides” (FMC CORPORATION, priority 2015, dated 2024).

Assays:
Assay type in all cases: in vivo
[1] = tested on: barnyardgrass (Echinochloa crus-galli); experiment: Test G Pre-Emergence Protocol; details: Echinochloa crus-galli, pre-emergence, 312 h, evaluated after 13 days; for pest or weed control at 15.625 g/ha: 15.625 g ai/ha; for pest or weed control at 15.625 g/ha / pest or weed control at 250 g/ha: read-out: Barnyardgrass damage rating (100=total damage to plant; 0=no damage to plant); for pest or weed control at 62.5 g/ha: 62.5 g ai/ha, 100=total damage to plant, 0=no damage to plant, read-out: Barnyardgrass damage rating; for pest or weed control at 250 g/ha: 250 g ai/ha
In short: (§1)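 Spraying took place one day after sowing, at 15.625, 62.5 or 250 g/ha, using an acetone/water (50:50) spray solution containing 0.5% Tween 20. Plants were kept under glasshouse conditions (24/16 °C, 14 h light, 65% humidity, watered twice daily), and injury was rated 0–100 at day 13.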

[2] = tested on: corn (Zea mays); experiment: Test G Pre-Emergence Protocol; details: Zea mays, pre-emergence, 312 h, evaluated after 13 days; for plant injury at 15.625 g/ha: 15.625 g ai/ha; for plant injury at 15.625 g/ha / plant injury at 250 g/ha: read-out: Corn damage rating (100=total damage to plant; 0=no damage to plant); for plant injury at 62.5 g/ha: 62.5 g ai/ha, 100=total damage to plant, 0=no damage to plant, read-out: Corn damage rating; for plant injury at 250 g/ha: 250 g ai/ha
In short: as §1

[3] = tested on: giant foxtail (Setaria faberi); experiment: Test G Pre-Emergence Protocol; details: Setaria faberi, pre-emergence, 312 h, evaluated after 13 days; for pest or weed control at 15.625 g/ha: 15.625 g ai/ha; for pest or weed control at 15.625 g/ha / pest or weed control at 250 g/ha: read-out: Foxtail, Giant damage rating (100=total damage to plant; 0=no damage to plant); for pest or weed control at 62.5 g/ha: 62.5 g ai/ha, 100=total damage to plant, 0=no damage to plant, read-out: Foxtail, Giant damage rating; for pest or weed control at 250 g/ha: 250 g ai/ha
In short: as §1

[4] = tested on: ivy-leaved morning glory (Ipomoea hederacea); experiment: Test G Pre-Emergence Protocol; details: Ipomoea, pre-emergence, 312 h, evaluated after 13 days; for pest or weed control at 15.625 g/ha: 15.625 g ai/ha; for pest or weed control at 15.625 g/ha / pest or weed control at 250 g/ha: read-out: Morningglory, Ivy-leaved damage rating (100=total damage to plant; 0=no damage to plant); for pest or weed control at 62.5 g/ha: 62.5 g ai/ha, 100=total damage to plant, 0=no damage to plant, read-out: Morningglory, Ivy-leaved damage rating; for pest or weed control at 250 g/ha: 250 g ai/ha
In short: as §1

[5] = tested on: redroot pigweed (Amaranthus retroflexus); experiment: Test G Pre-Emergence Protocol; details: Amaranthus retroflexus, pre-emergence, 312 h, evaluated after 13 days; for pest or weed control at 15.625 g/ha: 15.625 g ai/ha; for pest or weed control at 15.625 g/ha / pest or weed control at 250 g/ha: read-out: Pigweed, Redroot damage rating (100=total damage to plant; 0=no damage to plant); for pest or weed control at 62.5 g/ha: 62.5 g ai/ha, 100=total damage to plant, 0=no damage to plant, read-out: Pigweed, Redroot damage rating; for pest or weed control at 250 g/ha: 250 g ai/ha
In short: as §1

[6] = tested on: velvetleaf (Abutilon theophrasti); experiment: Test G Pre-Emergence Protocol; details: Abutilon theophrasti, pre-emergence, 312 h, evaluated after 13 days; for pest or weed control at 15.625 g/ha: 15.625 g ai/ha; for pest or weed control at 15.625 g/ha / pest or weed control at 250 g/ha: read-out: Velvetleaf damage rating (100=total damage to plant; 0=no damage to plant); for pest or weed control at 62.5 g/ha: 62.5 g ai/ha, 100=total damage to plant, 0=no damage to plant, read-out: Velvetleaf damage rating; for pest or weed control at 250 g/ha: 250 g ai/ha
In short: as §1

[7] = tested on: barnyardgrass (Echinochloa crus-galli); experiment: Test G Post-Emergence Protocol; details: Echinochloa crus-galli, post-emergence, 312 h, read-out: Barnyardgrass damage rating; for pest or weed control at 15.625 g/ha: 15.625 g ai/ha, evaluated after 13 days (100=total damage to plant; 0=no damage to plant); for pest or weed control at 62.5 g/ha: 62.5 g ai/ha; for pest or weed control at 62.5 g/ha / pest or weed control at 250 g/ha: evaluated after 13 days, 100=total damage to plant, 0=no damage to plant; for pest or weed control at 250 g/ha: 250 g ai/ha
In short: (§2)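 Damage was rated 13 days after treatment from 0 (none) to 100 (plant killed). Compound was applied as a spray at 15.625, 62.5 or 250 g/ha in 50:50 acetone/water containing 0.5% Tween 20, onto 8-day-old potted plants kept in a glasshouse (24/16 °C, 14 h light, 65% humidity).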

[8] = tested on: corn (Zea mays); experiment: Test G Post-Emergence Protocol; details: Zea mays, post-emergence, 312 h, read-out: Corn damage rating; for plant injury at 15.625 g/ha: 15.625 g ai/ha, evaluated after 13 days (100=total damage to plant; 0=no damage to plant); for plant injury at 62.5 g/ha: 62.5 g ai/ha; for plant injury at 62.5 g/ha / plant injury at 250 g/ha: evaluated after 13 days, 100=total damage to plant, 0=no damage to plant; for plant injury at 250 g/ha: 250 g ai/ha
In short: as §2

[9] = tested on: giant foxtail (Setaria faberi); experiment: Test G Post-Emergence Protocol; details: Setaria faberi, post-emergence, 312 h, read-out: Foxtail, Giant damage rating; for pest or weed control at 15.625 g/ha: 15.625 g ai/ha, evaluated after 13 days (100=total damage to plant; 0=no damage to plant); for pest or weed control at 62.5 g/ha: 62.5 g ai/ha
In short: as §2

[10] = tested on: ivy-leaved morning glory (Ipomoea hederacea); experiment: Test G Post-Emergence Protocol; details: Ipomoea, post-emergence, 312 h, read-out: Morningglory, Ivy-leaved damage rating; for pest or weed control at 15.625 g/ha: 15.625 g ai/ha, evaluated after 13 days (100=total damage to plant; 0=no damage to plant); for pest or weed control at 62.5 g/ha: 62.5 g ai/ha; for pest or weed control at 62.5 g/ha / pest or weed control at 250 g/ha: evaluated after 13 days, 100=total damage to plant, 0=no damage to plant; for pest or weed control at 250 g/ha: 250 g ai/ha
In short: as §2

[11] = tested on: redroot pigweed (Amaranthus retroflexus); experiment: Test G Post-Emergence Protocol; details: Amaranthus retroflexus, post-emergence, 312 h, read-out: Pigweed, Redroot damage rating; for pest or weed control at 15.625 g/ha: 15.625 g ai/ha, evaluated after 13 days (100=total damage to plant; 0=no damage to plant); for pest or weed control at 62.5 g/ha: 62.5 g ai/ha; for pest or weed control at 62.5 g/ha / pest or weed control at 250 g/ha: evaluated after 13 days, 100=total damage to plant, 0=no damage to plant; for pest or weed control at 250 g/ha: 250 g ai/ha
In short: as §2

[12] = tested on: velvetleaf (Abutilon theophrasti); experiment: Test G Post-Emergence Protocol; details: Abutilon theophrasti, post-emergence, 312 h, read-out: Velvetleaf damage rating; for pest or weed control at 15.625 g/ha: 15.625 g ai/ha, evaluated after 13 days (100=total damage to plant; 0=no damage to plant); for pest or weed control at 62.5 g/ha: 62.5 g ai/ha; for pest or weed control at 62.5 g/ha / pest or weed control at 250 g/ha: evaluated after 13 days, 100=total damage to plant, 0=no damage to plant; for pest or weed control at 250 g/ha: 250 g ai/ha
In short: as §2

[13] = evaluated after 13 days, 100=total damage to plant, 0=no damage to plant

Cc1cc(C#N)cc(C2CN(C)C(=O)C2C(=O)Nc2cccc(F)c2F)c1 (centres unmarked) [Compound 1691]
20%: pest or weed control at 15.625 g/ha [1] | plant injury at 62.5 g/ha [2] | pest or weed control at 62.5 g/ha [4] | pest or weed control at 62.5 g/ha [5] | pest or weed control at 250 g/ha [12]
40%: pest or weed control at 62.5 g/ha [6]
80%: pest or weed control at 250 g/ha [1] | plant injury at 250 g/ha [2] | pest or weed control at 62.5 g/ha [9, 13]
30%: pest or weed control at 250 g/ha [5] | pest or weed control at 15.625 g/ha [7] | pest or weed control at 250 g/ha [10]
60%: pest or weed control at 15.625 g/ha [3] | pest or weed control at 250 g/ha [6] | pest or weed control at 15.625 g/ha [9] | pest or weed control at 62.5 g/ha [10]
0%: plant injury at 15.625 g/ha [2] | pest or weed control at 15.625 g/ha [4] | pest or weed control at 15.625 g/ha [5] | pest or weed control at 15.625 g/ha [6] | plant injury at 15.625 g/ha [8] | plant injury at 62.5 g/ha [8] | pest or weed control at 15.625 g/ha [10] | pest or weed control at 15.625 g/ha [11] | pest or weed control at 62.5 g/ha [11] | pest or weed control at 250 g/ha [11] | pest or weed control at 15.625 g/ha [12]
70%: pest or weed control at 62.5 g/ha [1] | pest or weed control at 62.5 g/ha [7] | pest or weed control at 250 g/ha [7] | plant injury at 250 g/ha [8]
50%: pest or weed control at 250 g/ha [4]
90%: pest or weed control at 62.5 g/ha [3] | pest or weed control at 250 g/ha [3]
10%: pest or weed control at 62.5 g/ha [12]

CN1C[C@H](c2ccc(C(F)F)cc2)[C@@H](C(=O)Nc2cccc(F)c2F)C1=O (racemic) [Compound 1728]
60%: pest or weed control at 62.5 g/ha [6] | plant injury at 15.625 g/ha [8] | plant injury at 62.5 g/ha [8] | pest or weed control at 250 g/ha [12]
70%: pest or weed control at 15.625 g/ha [1] | pest or weed control at 15.625 g/ha [7] | pest or weed control at 250 g/ha [10]
30%: plant injury at 15.625 g/ha [2] | pest or weed control at 62.5 g/ha [4] | pest or weed control at 15.625 g/ha [5] | pest or weed control at 15.625 g/ha [12] | pest or weed control at 62.5 g/ha [12]
80%: plant injury at 62.5 g/ha [2] | plant injury at 250 g/ha [2] | pest or weed control at 15.625 g/ha [3] | pest or weed control at 250 g/ha [4] | pest or weed control at 62.5 g/ha [5] | pest or weed control at 250 g/ha [5] | pest or weed control at 250 g/ha [6] | pest or weed control at 62.5 g/ha [7] | pest or weed control at 250 g/ha [7] | plant injury at 250 g/ha [8] | pest or weed control at 15.625 g/ha [9] | pest or weed control at 62.5 g/ha [9, 13] | pest or weed control at 250 g/ha ([9]; 250 g ai/ha, evaluated after 13 days, 100=total damage to plant, 0=no damage to plant) | pest or weed control at 250 g/ha [11]
20%: pest or weed control at 62.5 g/ha [10] | pest or weed control at 15.625 g/ha [11]
40%: pest or weed control at 15.625 g/ha [6]
90%: pest or weed control at 62.5 g/ha [1] | pest or weed control at 250 g/ha [1] | pest or weed control at 62.5 g/ha [3] | pest or weed control at 250 g/ha [3]
0%: pest or weed control at 15.625 g/ha [4] | pest or weed control at 15.625 g/ha [10] | pest or weed control at 62.5 g/ha [11]
